Results reported in paper PMC2289263 (The Journal of Cell Biology, 1992).
One block for each substance: values may come before it.

Columns and labels:
[1] = tested on: B16-F10, A549, rabbit smooth muscle and bovine aortic endothelial cells; assay: Cell adhesion assay, summary over the four cell types of Table II; format: cell-based; details: for Cell attachment compared to TSP, range over four cell types: text summary of Table II
[2] = tested on: B16-F10 mouse melanoma cells in C57BL/6 mouse; assay: Tumor cell metastasis assay; format: in vivo; details: compared with buffer control
Heparin binding activity = details: data not shown
human platelets = assay: ADP-induced platelet aggregation in platelet-rich plasma; format: cell-based; details: ADP for 5 min, 500 ug/ml peptide; buffer control more than 1,000 per clump
[3] = Oxidative stability of peptide in solution; format: physicochemical

Substance: ANKHYF [reference compound]
Cell adhesive activity (in words) [1]: little or no significant cell adhesive activity
Effect on lung tumor colony formation (in words) [2]: no significant effect

Heparin binding activity (Heparin binding activity): possessed heparin binding activity
Substance: CRVTCG

Substance: CSTSCR
Cell attachment compared to TSP, range over four cell types [1]: 39-104%

Heparin binding activity (Heparin binding activity): did not
Oxidation in solution (in words) ([3]; multimers with apparent molecular weights of 2,000 on SDS-gels): slowly oxidized in solution
Time for which freshly prepared solutions were stable ([3]; peptide in solution, oxidation of cysteine thiols): at least 2 h
Substance: CSVTCG
Cell attachment compared to TSP, range over four cell types [1]: 29-49%
Platelets per clump (human platelets): 10-50 platelets per clump

Substance: CSVTCR
Cell attachment compared to TSP, range over four cell types [1]: 90-159%

Substance: Cyclic CSVTCG (disulfide)
Cell adhesive activity (in words) [1]: approximately to the same extent as CSVTCG

Substance: TCVCGS [reference compound]
Cell adhesive activity (in words) [1]: little or no significant cell adhesive activity
Effect on lung tumor colony formation (in words) [2]: no significant effect

Substance: TSP: 450,000-dalton glycoprotein secreted by platelets, purified from activated platelets
Number of adherent cells representing 100% adhesion ([1]; TSP-coated microtiter wells): 500 adherent cells per min'

Substance: VCTGSC [reference compound]
Cell adhesive activity (in words) [1]: little or no significant cell adhesive activity
